How the values were obtained:
EP2 = EP2 (Homo sapiens (Human), UniProt P43116); assay: hEP2 cAMP assay (SF295 glioblastoma cells, HTRF cAMP); format: cell-based; conditions: antagonistic activity
How it was run: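 PGE2-driven cAMP accumulation was measured by HTRF in SF295 cells, which express endogenous EP2 only. Cells in assay buffer with 2 mM IBMX were pre-incubated 45 min at RT, then incubated 30 min at RT. Detection used competition between cellular cAMP and d2-cAMP for a cryptate anti-cAMP antibody.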

PTGER4 (EP4) = PTGER4 (EP4) (Homo sapiens (Human), UniProt P35408); assay: cell-based
Description: The system is based on the Enzyme Fragment Complementation Technology. Two complementing fragments of the b-galactosidase enzyme are expressed within stably transfected cells. The larger portion of b-gal, termed EA for Enzyme Acceptor, is fused to the C-terminus of b-arrestin 2. The smaller fragment, termed ProLink™ tag, is fused to PTGER2 (EP2) or PTRGER4 (EP4) at the C-terminus. Upon activation, b-arrestin is recruited which forces the interaction of ProLink and EA, allowing complementation of the two fragments of b-gal and the formation of a functional enzyme which is capable of hydrolysing the substrate and generating a chemiluminescent signal.
Plate is incubated at 37° C., 5% CO2 for 24 hours.
Stock solutions of test compounds are made at a concentration of 10 mM in DMSO, and serially diluted in DMSO to concentrations required for inhibition dose response curves (tested concentration range 10 μM-2 nM or 1 μM-0.2 nM).
Five microliters of diluted compounds are transferred into the assay plate. Plate is pre-incubated 15 minutes at 37° C. Then five microliters of PGE2 (final conc. 20 nM) are transferred into the assay plate. Plate is incubated 120 minutes at 37° C.
Twelve I of reagent are transferred to the assay plate and incubate for 1 hour at RT in the dark. Luminescence counts are read on a BMG Fluostar Optima reader according to manufacturer's instructions.
For each compound concentration calculate of the percentage of activity compared to DMSO control value as average ±STDEV. (each concentration is measured in duplicate)

PTGER2 (EP2) = PTGER2 (EP2) (Homo sapiens (Human), UniProt P43116); assay: hEP2 b-arrestin assay (PathHunter HEK 293 PTGER2 b-arrestin cells); format: cell-based; conditions: antagonistic activity, beta-arrestin assay; read-out: hEP2 b-arr IC50
Description: Plate is pre-incubated 15 minutes at 37° C. Then five microliters of PGE2 (final conc. 5 μM) are transferred into the assay plate. Plate is incubated 120 minutes at 37° C.
(each concentration is measured in duplicate)

EP4 = EP4 (Homo sapiens (Human), UniProt P35408); assay: hEP4 cAMP assay (BT549 breast cancer cells, HTRF cAMP); format: cell-based; conditions: antagonistic activity, PGE2 6 nM
How it was run: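 cAMP accumulation quantified by HTRF competition between cellular cAMP and d2-labeled cAMP for cryptate anti-cAMP antibody. Cells: endogenously EP4-expressing BT549, buffer with 2 mM IBMX; 45 min RT compound preincubation preceded 30 min RT challenge with PGE2 at 6 nM final.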

Sequence of EP2 (P43116 whole entry): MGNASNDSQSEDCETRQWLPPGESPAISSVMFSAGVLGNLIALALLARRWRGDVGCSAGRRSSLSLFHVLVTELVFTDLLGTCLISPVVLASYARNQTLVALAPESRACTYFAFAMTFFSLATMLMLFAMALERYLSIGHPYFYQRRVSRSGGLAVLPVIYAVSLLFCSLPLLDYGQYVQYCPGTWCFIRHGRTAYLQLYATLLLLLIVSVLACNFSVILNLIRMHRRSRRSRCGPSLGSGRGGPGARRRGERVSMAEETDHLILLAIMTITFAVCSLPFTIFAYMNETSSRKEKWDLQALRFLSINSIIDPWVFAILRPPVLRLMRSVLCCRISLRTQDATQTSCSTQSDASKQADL
Sequence of PTGER2 (EP2) (P43116 whole entry): as above
Sequence of EP4 (P35408 whole entry): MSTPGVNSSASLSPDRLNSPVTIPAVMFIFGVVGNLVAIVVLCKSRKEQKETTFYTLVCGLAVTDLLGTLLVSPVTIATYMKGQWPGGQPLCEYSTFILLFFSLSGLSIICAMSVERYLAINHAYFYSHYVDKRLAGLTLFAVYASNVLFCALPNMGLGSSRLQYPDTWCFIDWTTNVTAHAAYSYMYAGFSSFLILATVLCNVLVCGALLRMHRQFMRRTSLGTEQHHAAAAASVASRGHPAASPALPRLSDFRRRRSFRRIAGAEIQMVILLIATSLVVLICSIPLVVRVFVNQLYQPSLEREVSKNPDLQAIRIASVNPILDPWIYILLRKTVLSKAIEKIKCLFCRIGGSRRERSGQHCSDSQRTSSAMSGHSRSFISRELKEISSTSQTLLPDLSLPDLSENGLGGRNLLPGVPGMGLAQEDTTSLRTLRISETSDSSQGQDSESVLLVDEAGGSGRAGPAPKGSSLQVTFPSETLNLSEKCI
Sequence of PTGER4 (EP4) (P35408 whole entry): as above

Structure (SMILES)	IC50 (EP2)	IC50 (PTGER4 (EP4))	IC50 (PTGER2 (EP2))	IC50 (EP4)	IC50 (EP4; BT549 cells)
CCCc1cc(-c2cc(NCCc3cc4ccsc4cc3OC)ncn2)ccc1CC(=O)O [Example 385, (4-{6-[2-(6-Methoxy-benzo[b]thiophen-5-yl)-ethylamino]-pyrimidin-4-yl}-2-propyl-phenyl)-acetic acid]	180 nM	71 nM	30 nM	134 nM	–
CCCc1cc(-c2cc(NCCc3ccc4sccc4c3F)ncn2)ccc1CC(=O)O [Example 386, (4-{6-[2-(4-Fluoro-benzo[b]thiophen-5-yl)-ethylamino]-pyrimidin-4-yl}-2-propyl-phenyl)-acetic acid]	453 nM	28 nM	64 nM	54 nM	–
CCCc1cc(-c2cc(NCCc3cc(F)c4sccc4c3)ncn2)ccc1CC(=O)O [Example 390, (4-{6-[2-(7-Fluoro-benzo[b]thiophen-5-yl)-ethylamino]-pyrimidin-4-yl}-2-propyl-phenyl)-acetic acid]	590 nM	29 nM	264 nM	32 nM	–
CCOc1cc(-c2cc(NCCc3c(OC)cc4c(c3C)OCCO4)ncn2)ccc1C(=O)O [Example 395, 2-Ethoxy-4-{6-[2-(7-methoxy-5-methyl-2,3-dihydro-benzo[1,4]dioxin-6-yl)-ethylamino]-pyrimidin-4-yl}-benzoic acid]	5 nM	98 nM	4 nM	–	128 nM
CC(C)COc1cc(-c2cc(NCCc3cc(F)c4sccc4c3)ncn2)ccc1C(=O)O [Example 453, 4-{6-[2-(7-Fluoro-benzo[b]thiophen-5-yl)-ethylamino]-pyrimidin-4-yl}-2-isobutoxy-benzoic acid]	281 nM	70 nM	102 nM	–	118 nM

Second part, the compound after the results:

IC50 (EP2)	IC50 (PTGER4 (EP4))	IC50 (PTGER2 (EP2))	IC50 (EP4)	IC50 (EP4; BT549 cells)	Structure (SMILES)
45 nM	54 nM	10 nM	–	148 nM	CCOc1cc(-c2cc(NCCc3c(OCC)cc4ccccc4c3C)ncn2)ccc1C(=O)O [Example 418, 2-Ethoxy-4-{6-[2-(3-ethoxy-1-methyl-naphthalen-2-yl)-ethylamino]-pyrimidin-4-yl}-benzoic acid]
29 nM	30 nM	3 nM	–	85 nM	CCOc1cc2ccccc2c(C)c1CCNc1cc(-c2ccc(C(=O)O)c(SC)c2)ncn1 [Example 419, 4-{6-[2-(3-Ethoxy-1-methyl-naphthalen-2-yl)-ethylamino]-pyrimidin-4-yl}-2-methylsulfanyl-benzoic acid]
257 nM	30 nM	27 nM	–	119 nM	CCOc1cc(-c2cc(NCCc3c(OCC)cc4ccccc4c3C)ncn2)ccc1CC(=O)O [Example 420, (2-Ethoxy-4-{6-[2-(3-ethoxy-1-methyl-naphthalen-2-yl)-ethylamino]-pyrimidin-4-yl}-phenyl)-acetic acid]
110 nM	31 nM	16 nM	–	57 nM	CCOc1cc(-c2cc(NCCc3c(OCC)cc4ccccc4c3F)ncn2)ccc1C(=O)O [Example 436, 2-Ethoxy-4-{6-[2-(3-ethoxy-1-fluoro-naphthalen-2-yl)-ethylamino]-pyrimidin-4-yl}-benzoic acid]
660 nM	21 nM	71 nM	–	16 nM	CCOc1cc(-c2cc(NCCc3cc(F)c4sccc4c3)ncn2)ccc1-c1noc(=O)[nH]1 [Example 451, 3-(2-Ethoxy-4-{6-[2-(7-fluoro-benzo[b]thiophen-5-yl)-ethylamino]-pyrimidin-4-yl}-phenyl)-[1,2,4]oxadiazol-5(4H)-one]
371 nM	21 nM	103 nM	–	18 nM	CCOc1cc(-c2cc(NCCc3cc(F)c4sccc4c3)ncn2)ccc1-c1nnn[nH]1 [Example 452, {6-[3-Ethoxy-4-(1H-tetrazol-5-yl)-phenyl]-pyrimidin-4-yl}-[2-(7-fluoro-benzo[b]thiophen-5-yl)-ethyl]-amine]

— patent publication US11839613B2, “Pyrimidine derivatives as PGE2 receptor modulators” (IDORSIA PHARMACEUTICALS LTD, priority 2017, dated 2023)
